# According to US20050192285A1, “Method of treatment” (priority 2000, published 2005):
# Values joined by “and” are separate entries in the source; they are usually repeats but may differ in a detail not shown here. Equal values may be shown once.
# Columns and labels:
# [1] = GLOBE study: recurrence of AECB requiring antimicrobial treatment over 26 weeks; assay type: in vivo, human; conditions: for % patients resolved and with no recurrences of AECB / Difference GEMI-CLARI in % patients with no recurrences: ITT; for % patients resolved and with no recurrences of AECB: GEMI 320 mg o.d./5 days, CLARI 500 mg b.d./7 days
# Experimental: Background: Few health outcome studies have been reported for antimicrobial treatment of acute infections. In one study, trends favoring ciprofloxacin versus ‘usual care’ in terms of clinical outcomes were found (Grossman, et al., Chest, 113:131-141 (1998)). In this double-blind, prospective long-term study, patients who enrolled into a study comparing 320 mg gemifloxacin (GEMI) once daily (o.d.)/5 days with 500 mg clarithromycin (CLARI) twice daily (b.d.)/7 days for the treatment of AECB, and agreed at enrollment to continue in the study for up to 26 weeks, were assessed for clinical status and use of health care resources.
# Methods: Clinical assessments were performed at screening (day 0), week 4-5 (end of acute study), weeks 12 and 26 and by telephone at weeks 8, 17 and 21.
# (§1) Prospective, 26 week, double-blind, observational parallel/follow-on study to an acute treatment efficacy and safety study (study 068) (Wilson, et al., Abstracts of the 40th Interscience Conference of Clinical Microbiology and Infectious Diseases, Toronto, Canada, Abstract 815 (2000)) in which patients randomly received a single course of either 5 days of oral GEMI 320mg once daily (o.d.) or 7 days of oral CLARI 500 mg twice daily (b.d.) for AECB (Wilson, et al., Abstracts of the 40th Interscience Conference of Clinical Microbiology and Infectious Diseases, Toronto, Canada, Abstract 815 (2000)).
# All patients entering study 068 at centers in the USA and Canada were asked to participate in the GLOBE study.
# (§2) Patients were assessed at screening (visit 1) at day 28-35 (visit 2) then at weeks 12 (visit 3) and 26 (visit 4) and by telephone at weeks 8, 17 and 21.
# (§3) Information was collected on: recurrent episodes of AECB requiring antimicrobial treatment; use of medical resources related to respiratory tract infection (RTI), including RTI-related:- hospitalizations, physician visits and antimicrobial therapy; time off work and usual activities; and negative impact on performance at work or during usual activities.
# Clinical outcomes were analyzed for patients in the intention to treat population (ITT) who were available for assessment at 26 weeks (visit 4).
# [2] = GLOBE study: RTI-related hospitalizations over 26 weeks; assay type: in vivo, human; conditions: for percentage of patients hospitalized for RTI-related conditions / cumulative number of patients hospitalized for RTI-related conditions: 26 week study period; for cumulative number of patients hospitalized for RTI-related conditions: ITT (GEMI N=214, CLARI N=224)
# Experimental: as §1, §2, §3
# Medical resource utilization was analyzed on cumulative data across all patients in the ITT population.
# [3] = cited from earlier work
# H. influenzae = conditions: subset of patients with daily sputum cultures; p=0.02; cited from earlier work
Structure (SMILES),patients with a recurrence of AECB ([1]; by week 26) [%],% patients resolved and with no recurrences of AECB ([1]; visit 2 (day 28-35)),% patients resolved and with no recurrences of AECB ([1]; visit 3 (week 12)),% patients resolved and with no recurrences of AECB ([1]; visit 4 (week 26)),RTI-related hospitalization days per 100 patients ([2]; 26-week study period) [days per 100 patients],"Cumulative number of RTI-related hospitalization days, mean (SD) ([2]; 26-week study period, ITT)","Cumulative number of RTI-related hospitalization days, median (range) ([2]; 26-week study period, ITT)",percentage of patients hospitalized for RTI-related conditions ([2]; ITT) [%],cumulative number of patients hospitalized for RTI-related conditions [2],"RTI-related hospitalizations across all visits, percentage ([2]; 26 weeks, ITT) [%]","cumulative number of RTI-related hospitalizations across all visits ([2]; 26 weeks, ITT)",also measured
"CC[C@H]1OC(=O)[C@H](C)[C@@H](O[C@H]2C[C@@](C)(OC)[C@@H](O)[C@H](C)O2)[C@H](C)[C@@H](O[C@@H]2O[C@H](C)C[C@H](N(C)C)[C@H]2O)[C@](C)(OC)C[C@@H](C)C(=O)[C@H](C)[C@@H](O)[C@]1(C)O [CLARI, clarithromycin, reference compound]",41.5,80.8 (173/214) %,74.4 (131/176) %,58.5% and 58.5 (100/171) %,37,0.37 (1.60) days,0 (0-11) days,6.3,14,7.1,16,
"CO/N=C1\CN(c2nc3c(cc2F)c(=O)c(C(=O)O)cn3C2CC2)CC1CN (racemic) [GEMI, (R,S)-7-(3-aminomethyl-4-methoxyiminopyrrolidin-1-yl)-1-cyclopropyl-6-fluoro-4-oxo-1,4-dihydro-1,8-naphthyridine-3-carboxylic acid]",29.0,87.1 (176/202) %,80.9 (148/183) %,71.0% and 71.0 (120/169) %,20,0.20 (1.43) days,0 (0-16) days,2.3,5,3.3,7,"preventing further exacerbations versus CLARI ([1]; 6 month period following start of therapy, GEMI 320 mg o.d./5 days vs CLARI 500 mg b.d./7 days): superior to CLARI; long-term clinical outcomes in AECB compared to clarithromycin ([1]; GLOBE conclusions): superior; fewer patients with a recurrence of AECB compared with CLARI ([1]; by week 26, relative reduction (29.0% vs. 41.5%)): 30%; Difference GEMI-CLARI in % patients with no recurrences ([1]; visit 2 (day 28-35)): 6.3%; Difference GEMI-CLARI in % patients with no recurrences ([1]; visit 3 (week 12)): 6.4%; Difference GEMI-CLARI in % patients with no recurrences ([1]; visit 4 (week 26)): 12.5% and 12.5^b %; effectiveness of acute treatment compared with CLARI ([3]; 5 days GEMI vs 7 days CLARI): as effective as; bacteriological success rates compared with CLARI ([3]; all study visits, significantly higher at late follow-up days 28-35): higher; time to H. influenzae eradication compared with CLARI (H. influenzae): significantly faster; Median difference gemifloxacin-clarithromycin in RTI-related hospitalization days (95% CI) ([2]; 26-week study period, ITT): 0 (0, 0) days; treatment difference in RTI-related hospitalizations ([2]; GEMI minus CLARI, 26 weeks): −3.87%; treatment difference in patients hospitalized for RTI-related conditions ([2]; GEMI minus CLARI, 26 weeks): −3.91%"
